Assay results published in ChEMBL document CHEMBL1152749, “Haemolytic activity, cytotoxicity and membrane cell permeabilization of semi-synthetic and natural lupane- and oleanane-type saponins” (Bioorg Med Chem, 2009).

Legend:
[1] = Toxicity in sheep erythrocytes assessed as induction of hemolysis; type: cell-based, Ovis aries, Erythrocyte; settings: read-out: HD50 (the source's name)
A549 [2] = assay: Cytotoxicity against human A549 cells after 48 hrs by resazurin reduction test; type: functional, cell-based; settings: A549, 48 h
DLD-1 [3] = assay: Cytotoxicity against human DLD1 cells after 48 hrs by resazurin reduction test; type: functional, cell-based; settings: DLD-1, 48 h
[4] = Cytotoxicity against human WS1 cells after 48 hrs by resazurin reduction test; type: cell-based; settings: WS1, 48 h
A549 [5] = assay: Cell membrane permeabilization in human A549 cells assessed as drug level causing decrease in calcein fluorescence; type: ADME, cell-based
DLD-1 [6] = assay: Cell membrane permeabilization in human DLD1 cells assessed as drug level causing decrease in calcein fluorescence; type: ADME, cell-based
[7] = Cell membrane permeabilization in human WS1 cells assessed as drug level causing decrease in calcein fluorescence; type: ADME, cell-based

SMILES | IC50 (A549 [5]) | IC50 (DLD-1 [6]) | IC50 [7] | HC50 [1] | IC50 (A549 [2]) | IC50 (DLD-1 [3]) | IC50 [4]
C=C(C)[C@@H]1CC[C@]2(C(=O)O)CC[C@]3(C)[C@H](CC[C@@H]4[C@@]5(C)CC[C@H](O[C@@H]6O[C@@H](C)[C@H](O)[C@@H](O)[C@H]6O)C(C)(C)[C@@H]5CC[C@]43C)[C@@H]12 | > 200 µM | > 200 µM | > 200 µM | > 100 µM | 2.6 µM | 3.9 µM | 31 µM
C=C(C)[C@@H]1CC[C@]2(CO)CC[C@]3(C)[C@H](CC[C@@H]4[C@@]5(C)CC[C@H](O[C@@H]6O[C@@H](CO)[C@H](O)[C@H]6O)C(C)(C)[C@@H]5CC[C@]43C)[C@@H]12 | > 200 µM | > 200 µM | > 200 µM | > 100 µM | > 100 µM | > 100 µM | > 100 µM
C=C(C)[C@@H]1CC[C@]2(C(=O)O)CC[C@]3(C)[C@H](CC[C@@H]4[C@@]5(C)CC[C@H](O[C@@H]6O[C@@H](CO)[C@H](O)[C@H]6O)C(C)(C)[C@@H]5CC[C@]43C)[C@@H]12 | > 200 µM | > 200 µM | > 200 µM | > 100 µM | > 100 µM | > 100 µM | > 100 µM
C=C(C)[C@@H]1CC[C@]2(CO)CC[C@]3(C)[C@H](CC[C@@H]4[C@@]5(C)CC[C@H](O[C@@H]6OC[C@H](O)[C@H](O)[C@H]6O[C@@H]6O[C@@H](C)[C@H](O)[C@@H](O)[C@H]6O)C(C)(C)[C@@H]5CC[C@]43C)[C@@H]12 | > 200 µM | > 200 µM | > 200 µM | > 100 µM | > 100 µM | > 100 µM | > 100 µM
C=C(C)[C@@H]1CC[C@]2(C(=O)O[C@@H]3O[C@H](CO)[C@@H](O)[C@H](O)[C@H]3O)CC[C@]3(C)[C@H](CC[C@@H]4[C@@]5(C)CC[C@H](O[C@@H]6OC[C@H](O)[C@H](O)[C@H]6O)C(C)(C)[C@@H]5CC[C@]43C)[C@@H]12 | > 200 µM | > 200 µM | > 200 µM | > 100 µM | – | – | –
C=C(C)[C@@H]1CC[C@]2(C(=O)O)CC[C@]3(C)[C@H](CC[C@@H]4[C@@]5(C)CC[C@H](O[C@H]6OC[C@@H](O)[C@@H](O)[C@@H]6O)C(C)(C)[C@@H]5CC[C@]43C)[C@@H]12 | > 200 µM | > 200 µM | > 200 µM | > 100 µM | 10 µM | 17 µM | 47 µM
C=C(C)[C@@H]1CC[C@]2(C(=O)O)CC[C@]3(C)[C@H](CC[C@@H]4[C@@]5(C)CC[C@H](O)C(C)(C)[C@@H]5CC[C@]43C)[C@@H]12 [BETULINIC ACID] | > 200 µM | > 200 µM | > 200 µM | > 100 µM | – | – | –
C=C(C)[C@@H]1CC[C@]2(CO)CC[C@]3(C)[C@H](CC[C@@H]4[C@@]5(C)CC[C@H](O)C(C)(C)[C@@H]5CC[C@]43C)[C@@H]12 [BETULIN] | > 200 µM | > 200 µM | > 200 µM | > 100 µM | – | – | –

Second part, led by results:

IC50 (A549 [5]) | IC50 (DLD-1 [6]) | IC50 [7] | SMILES | HC50 [1] | IC50 (A549 [2]) | IC50 (DLD-1 [3]) | IC50 [4]
> 200 µM | > 200 µM | > 200 µM | C=C(C)[C@@H]1CC[C@]2(C(=O)O)CC[C@]3(C)[C@H](CC[C@@H]4[C@@]5(C)CC[C@H](O[C@@H]6O[C@H](CO)[C@@H](O)[C@H](O)[C@H]6O)C(C)(C)[C@@H]5CC[C@]43C)[C@@H]12 | > 100 µM | > 100 µM | 32 µM | > 100 µM
> 200 µM | > 200 µM | > 200 µM | C=C(C)[C@@H]1CC[C@]2(C(=O)O)CC[C@]3(C)[C@H](CC[C@@H]4[C@@]5(C)CC[C@H](O[C@@H]6O[C@H](CO)[C@H](O)[C@H](O)[C@H]6O)C(C)(C)[C@@H]5CC[C@]43C)[C@@H]12 | > 100 µM | > 100 µM | > 100 µM | > 100 µM
> 200 µM | > 200 µM | > 200 µM | C=C(C)[C@@H]1CC[C@]2(CO)CC[C@]3(C)[C@H](CC[C@@H]4[C@@]5(C)CC[C@H](O[C@@H]6O[C@H](CO)[C@@H](O)[C@H](O)[C@H]6O)C(C)(C)[C@@H]5CC[C@]43C)[C@@H]12 | > 100 µM | > 100 µM | > 100 µM | > 100 µM
> 200 µM | > 200 µM | > 200 µM | C=C(C)[C@@H]1CC[C@]2(CO)CC[C@]3(C)[C@H](CC[C@@H]4[C@@]5(C)CC[C@H](O[C@@H]6OC[C@H](O)[C@H](O)[C@H]6O)C(C)(C)[C@@H]5CC[C@]43C)[C@@H]12 | > 100 µM | > 100 µM | > 100 µM | > 100 µM
> 200 µM | > 200 µM | > 200 µM | C=C(C)[C@@H]1CC[C@]2(C(=O)O)CC[C@]3(C)[C@H](CC[C@@H]4[C@@]5(C)CC[C@H](O[C@@H]6OC[C@H](O)[C@H](O)[C@H]6O)C(C)(C)[C@@H]5CC[C@]43C)[C@@H]12 | > 100 µM | 12 µM | 11 µM | 19 µM
40 µM | 54 µM | 51 µM | CC1(C)CC[C@]2(C(=O)O)CC[C@]3(C)C(=CC[C@@H]4[C@@]5(C)CC[C@H](O[C@@H]6OC[C@H](O)[C@H](O)[C@H]6O)[C@@](C)(CO)[C@@H]5CC[C@]43C)[C@@H]2C1 | 12 µM | 58 µM | 57 µM | 30 µM
> 200 µM | > 200 µM | > 200 µM | C=C(C)[C@@H]1CC[C@]2(C(=O)O)CC[C@]3(C)[C@H](CC[C@@H]4[C@@]5(C)CC[C@H](O[C@@H]6OC[C@H](O)[C@H](O)[C@H]6O[C@@H]6O[C@@H](C)[C@H](O)[C@@H](O)[C@H]6O)C(C)(C)[C@@H]5CC[C@]43C)[C@@H]12 | 78 µM | > 100 µM | > 100 µM | > 100 µM
> 200 µM | > 200 µM | > 200 µM | C=C(C)[C@@H]1CC[C@]2(CO[C@@H]3O[C@H](CO)[C@@H](O)[C@H](O)[C@H]3O)CC[C@]3(C)[C@H](CC[C@@H]4[C@@]5(C)CC[C@H](O[C@@H]6OC[C@H](O)[C@H](O)[C@H]6O)C(C)(C)[C@@H]5CC[C@]43C)[C@@H]12 | > 100 µM | – | – | –
> 200 µM | > 200 µM | > 200 µM | C=C(C)[C@@H]1CC[C@]2(C(=O)O)CC[C@]3(C)[C@H](CC[C@@H]4[C@@]5(C)CC[C@H](O[C@@H]6OC[C@H](O[C@@H]7O[C@H](CO)[C@@H](O)[C@H](O)[C@H]7O)[C@H](O)[C@H]6O[C@@H]6O[C@@H](C)[C@H](O)[C@@H](O)[C@H]6O)C(C)(C)[C@@H]5CC[C@]43C)[C@@H]12 | 94 µM | > 50 µM | > 50 µM | > 50 µM
3 µM | 4 µM | 2.8 µM | C[C@@H]1O[C@@H](O[C@H]2[C@H](O[C@H]3CC[C@]4(C)[C@H]5CC=C6[C@@H]7CC(C)(C)CC[C@]7(C(=O)O)CC[C@@]6(C)[C@]5(C)CC[C@H]4C3(C)C)OC[C@H](O)[C@@H]2O)[C@H](O)[C@H](O)[C@H]1O | 2 µM | 15 µM | 30 µM | 14 µM
